Target: T1, human SSTR5 (Homo sapiens, UniProt P35346)
T1 construct: expressed in transfected cells
Test: Evaluation of human SSTR5 antagonist activity using intracellular cAMP concentration as index
Assay type: cell-based
Conditions: 1 μM test compound; CHO (dhfr-) cells stably expressing human SSTR5; 0.1 nM somatostatin 28, 0.3 μM forskolin; cAMP HTRF; read-out: Inhibition rate against SSTR5 at 1 μM
Protocol: Evaluation of Human SSTR5 Antagonist Activity Using Intracellular cAMP Concentration as Index
The intracellular cAMP concentration was measured using HTRF cAMP dynamic 2 kit (Cisbio Bioassays). Each test compound diluted with an assay buffer (HBSS (Invitrogen Corp.) containing 5 mM HEPES (pH 7.5) (Invitrogen Corp.), 0.1% fatty-acid free BSA (Sigma-Aldrich Corp.), and 500 μM IBMX (Wako Pure Chemical Industries, Ltd.)) was added at a concentration of 2 μL/well to a 384-well white plate (Greiner Bio-One Co., Ltd.) to give the final concentration of 1 μM. A frozen stock of CHO (dhfr-) cells stably expressing the human SSTR5 gene (Accession No. NM_001053) was thawed in a thermostat bath of 37° C. and suspended in a subculture medium (MEM alpha (Wako Pure Chemical Industries, Ltd.), 10% dialyzed serum (Gemini Bio-Products), and 50 μg/mL gentamicin (Invitrogen Corp.). After centrifugation of the cell suspension, the cells were resuspended in an assay buffer and added at a concentration of 2 μL/well (about 4,000 cells/well) to the plate. The compound and the cells were incubated for 15 minutes, and then, an assay buffer containing 0.1 nM (final concentration) somatostatin 28 (Toray Research Center) and 0.3 μM (final concentration) forskolin (Wako Pure Chemical Industries, Ltd.) was added thereto at a concentration of 2 μL/well, followed by incubation at room temperature for 30 minutes. cAMP-d2 and anti-cAMP-cryptate were each added thereto at a concentration of 3 μL/well. The plate was left standing at room temperature for 60 minutes. Then, the fluorescence resonance energy transfer (FRET) intensity was measured using Multi-label reader Envision (PerkinElmer). The FRET intensity of the wells supplemented with the test compound group was converted to a cAMP concentration using a calibration curve prepared from the FRET intensity of a well group containing an assay buffer supplemented with an arbitrary concentration of cAMP. The inhibitory activity of each compound was calculated according to the following expression: Inhibitory activity (%)=(C−B)/(A−B)×100 A: cAMP concentration calculated from the wells supplemented with 0.3 μM forskolin B: cAMP concentration calculated from the wells supplemented with 0.3 μM forskolin and 0.1 nM somatostatin 28 C: cAMP concentration calculated from the wells supplemented with 0.3 μM forskolin, 0.1 nM somatostatin 28, and 1 μM test compound

T1 sequence (P35346 whole entry): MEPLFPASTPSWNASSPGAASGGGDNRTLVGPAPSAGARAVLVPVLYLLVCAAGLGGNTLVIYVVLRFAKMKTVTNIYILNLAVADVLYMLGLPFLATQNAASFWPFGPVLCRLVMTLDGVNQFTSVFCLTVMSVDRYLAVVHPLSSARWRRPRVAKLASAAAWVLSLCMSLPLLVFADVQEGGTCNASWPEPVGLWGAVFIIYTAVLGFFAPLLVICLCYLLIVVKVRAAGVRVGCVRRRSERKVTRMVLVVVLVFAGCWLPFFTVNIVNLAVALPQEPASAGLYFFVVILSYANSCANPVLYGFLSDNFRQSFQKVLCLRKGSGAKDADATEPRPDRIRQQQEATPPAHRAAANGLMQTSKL

SMILES | inhibition at 1 µM [%]
CCOc1cc(CN2CCC(N3CCc4nc(C)c(C(=O)O)cc4C3=O)CC2)cc(C2CC2)c1-c1ccc(F)cc1 [Example 1, 6-(1-((2-Cyclopropyl-6-ethoxy-4′-fluorobiphenyl-4-yl)methyl)piperidin-4-yl)-2-methyl-5-oxo-5,6,7,8-tetrahydro-1,6-naphthyridine-3-carboxylic acid] | 91
CCOc1cc(-c2ccc(F)cc2)c(C2CC2)cc1CN1CCC(N2CCc3nc(CC)c(C(=O)O)cc3C2=O)CC1 [Example 2, 6-(1-((2-Cyclopropyl-5-ethoxy-4′-fluorobiphenyl-4-yl)methyl)piperidin-4-yl)-2-ethyl-5-oxo-5,6,7,8-tetrahydro-1,6-naphthyridine-3-carboxylic acid] | 86
CCOc1cc(-c2ccc(F)cc2)c(C2CC2)cc1CN1CCC(N2CCc3nc(C4CC4)c(C(=O)O)cc3C2=O)CC1 [Example 3, 2-Cyclopropyl-6-(1-((2-cyclopropyl-5-ethoxy-4′-fluorobiphenyl-4-yl)methyl)piperidin-4-yl)-5-oxo-5,6,7,8-tetrahydro-1,6-naphthyridine-3-carboxylic acid] | 115
CCOc1cc(-c2ccc(F)cc2)c(C2CC2)cc1CN1CCC(N2CCc3nc(C)c(C(=O)O)cc3C2=O)CC1 [Example 5, 6-(1-((2-Cyclopropyl-5-ethoxy-4′-fluorobiphenyl-4-yl)methyl)piperidin-4-yl)-2-methyl-5-oxo-5,6,7,8-tetrahydro-1,6-naphthyridine-3-carboxylic acid] | 132
Cc1nc2c(cc1C(=O)O)C(=O)N(C1CCN(Cc3cc(C4CC4)c(-c4ccc(F)cc4)nc3OC(C)C)CC1)CC2 [Example 6, 6-(1-((5-Cyclopropyl-6-(4-fluorophenyl)-2-isopropoxypyridin-3-yl)methyl)piperidin-4-yl)-2-methyl-5-oxo-5,6,7,8-tetrahydro-1,6-naphthyridine-3-carboxylic acid] | 88
Cc1nc2c(cc1C(=O)O)C(=O)N(C1CCN(Cc3cc(C4CC4)c(-c4ccc(F)cc4)cc3OC(C)C)CC1)CC2 [Example 7, 6-(1-((2-Cyclopropyl-4′-fluoro-5-isopropoxybiphenyl-4-yl)methyl)piperidin-4-yl)-2-methyl-5-oxo-5,6,7,8-tetrahydro-1,6-naphthyridine-3-carboxylic acid] | 88
CCOc1cc(CN2CCC(N3CCc4nc(C)c(C(=O)O)cc4C3=O)CC2)cc(C2CC2)c1-c1ccc(F)c(F)c1 [Example 8, 6-(1-((2-Cyclopropyl-6-ethoxy-3′,4′-difluorobiphenyl-4-yl)methyl)piperidin-4-yl)-2-methyl-5-oxo-5,6,7,8-tetrahydro-1,6-naphthyridine-3-carboxylic acid] | 97
CCOc1cc(C2CCC2)c(C2CC2)cc1CN1CCC(N2CCc3ncc(C(=O)O)cc3C2=O)CC1 [Example 30, 6-(1-(4-Cyclobutyl-5-cyclopropyl-2-ethoxybenzyl)piperidin-4-yl)-5-oxo-5,6,7,8-tetrahydro-1,6-naphthyridine-3-carboxylic acid] | 110
CCOc1cc(-c2ccc(F)cc2)c(C2CC2)cc1CN1CCC(N2CCc3ccc(C(=O)O)nc3C2=O)CC1 [Example 31, 7-(1-((2-Cyclopropyl-5-ethoxy-4′-fluorobiphenyl-4-yl)methyl)piperidin-4-yl)-8-oxo-5,6,7,8-tetrahydro-1,7-naphthyridine-2-carboxylic acid] | 118
CCOc1nc(-c2ccc(F)cc2)c(C2CC2)cc1CN1CCC(N2CCc3nc(CC)c(C(=O)O)cc3C2=O)CC1 [Example 33, 6-(1-((5-Cyclopropyl-2-ethoxy-6-(4-fluorophenyl)pyridin-3-yl)methyl)piperidin-4-yl)-2-ethyl-5-oxo-5,6,7,8-tetrahydro-1,6-naphthyridine-3-carboxylic acid] | 123
CCOc1cc(CN2CCC(N3CCc4ncc(C(=O)O)cc4C3=O)C2)cc(OCC)c1-c1ccc(F)cc1 (stereo not shown) [Example 34, 6-(1-((2,6-Diethoxy-4′-fluorobiphenyl-4-yl)methyl)pyrrolidin-3-yl)-5-oxo-5,6,7,8-tetrahydro-1,6-naphthyridine-3-carboxylic acid] | 102
CCCc1nc2c(cc1C(=O)O)C(=O)N(C1CCN(Cc3cc(OCC)c(-c4ccc(F)cc4)c(C4CC4)c3)CC1)CC2 [Example 36, 6-(1-((2-Cyclopropyl-6-ethoxy-4′-fluorobiphenyl-4-yl)methyl)piperidin-4-yl)-5-oxo-2-propyl-5,6,7,8-tetrahydro-1,6-naphthyridine-3-carboxylic acid] | 94
CCCc1nc2c(cc1C(=O)O)C(=O)N(C1CCN(Cc3cc(C4CC4)c(-c4ccc(F)cc4)cc3OC(C)C)CC1)CC2 [Example 37, 6-(1-((2-Cyclopropyl-4′-fluoro-5-isopropoxybiphenyl-4-yl)methyl)piperidin-4-yl)-5-oxo-2-propyl-5,6,7,8-tetrahydro-1,6-naphthyridine-3-carboxylic acid] | 97
CCCc1nc2c(cc1C(=O)O)C(=O)N(C1CCN(Cc3cc(OCC)c(-c4ccc(F)cc4)c(OCC)c3)CC1)CC2 [Example 38, 6-(1-((2,6-Diethoxy-4′-fluorobiphenyl-4-yl)methyl)piperidin-4-yl)-5-oxo-2-propyl-5,6,7,8-tetrahydro-1,6-naphthyridine-3-carboxylic acid] | 97

Results, then the compound that gave them:

inhibition at 1 µM [%] | SMILES
112 | CCCc1nc2c(cc1C(=O)O)C(=O)N(C1CCN(Cc3cc(C4CC4)c(-c4ccc(F)c(F)c4)cc3OC(C)C)CC1)CC2 [Example 39, 6-(1-((2-Cyclopropyl-3′,4′-difluoro-5-isopropoxybiphenyl-4-yl)methyl)piperidin-4-yl)-5-oxo-2-propyl-5,6,7,8-tetrahydro-1,6-naphthyridine-3-carboxylic acid]
148 | CCCc1nc2c(cc1C(=O)O)C(=O)N(C1CCN(Cc3cc(C4CC4)c(-c4ccc(F)cc4F)cc3OC(C)C)CC1)CC2 [Example 40, 6-(1-((2-Cyclopropyl-2′,4′-difluoro-5-isopropoxybiphenyl-4-yl)methyl)piperidin-4-yl)-5-oxo-2-propyl-5,6,7,8-tetrahydro-1,6-naphthyridine-3-carboxylic acid]
99 | CCCc1nc2c(cc1C(=O)O)C(=O)N(C1CCN(Cc3cc(C4CC4)c(C4CCC4)cc3OC(C)C)CC1)CC2 [Example 41, 6-(1-(4-Cyclobutyl-5-cyclopropyl-2-isopropoxybenzyl)piperidin-4-yl)-5-oxo-2-propyl-5,6,7,8-tetrahydro-1,6-naphthyridine-3-carboxylic acid]
136 | CCCc1nc2c(cc1C(=O)O)C(=O)N(C1CCN(Cc3cc(C4CC4)c(-c4ccc(F)cc4)cc3OC)CC1)CC2 [Example 42, 6-(1-((2-Cyclopropyl-4′-fluoro-5-methoxybiphenyl-4-yl)methyl)piperidin-4-yl)-5-oxo-2-propyl-5,6,7,8-tetrahydro-1,6-naphthyridine-3-carboxylic acid]
95 | CCCc1nc2c(cc1C(=O)O)C(=O)N(C1CCN(Cc3cc(C4CC4)c(-c4ccc(F)c(F)c4)cc3OCC)CC1)CC2 [Example 43, 6-(1-((2-Cyclopropyl-5-ethoxy-3′,4′-difluorobiphenyl-4-yl)methyl)piperidin-4-yl)-5-oxo-2-propyl-5,6,7,8-tetrahydro-1,6-naphthyridine-3-carboxylic acid]
111 | CCc1nc2c(cc1C(=O)O)C(=O)N(C1CCN(Cc3cc(C4CC4)c(-c4ccc(F)cc4)cc3OC(C)C)CC1)CC2 [Example 44, 6-(1-((2-Cyclopropyl-4′-fluoro-5-isopropoxybiphenyl-4-yl)methyl)piperidin-4-yl)-2-ethyl-5-oxo-5,6,7,8-tetrahydro-1,6-naphthyridine-3-carboxylic acid]
99 | CCOc1cc(CN2CCC(N3CCc4nc(CC)c(C(=O)O)cc4C3=O)CC2)cc(C2CC2)c1-c1ccc(F)cc1 [Example 45, 6-(1-((2-Cyclopropyl-6-ethoxy-4′-fluorobiphenyl-4-yl)methyl)piperidin-4-yl)-2-ethyl-5-oxo-5,6,7,8-tetrahydro-1,6-naphthyridine-3-carboxylic acid]
86 | CCc1nc2c(cc1C(=O)O)C(=O)N(C1CCN(Cc3cc(C4CC4)c(-c4ccc(F)cc4F)cc3OC(C)C)CC1)CC2 [Example 46, 6-(1-((2-Cyclopropyl-2′,4′-difluoro-5-isopropoxybiphenyl-4-yl)methyl)piperidin-4-yl)-2-ethyl-5-oxo-5,6,7,8-tetrahydro-1,6-naphthyridine-3-carboxylic acid]

Reference: patent US9751878B2, “Tetrahydronaphthyridine somatostatin receptor 5 antagonists” (Takeda Pharmaceutical Company Limited, priority 2013, dated 2017)
